Experiments:
HUVECs = experiment: Intracellular Tz accumulation by fluorescence liberation from TCO-CMR, HUVECs; format: cell-based; conditions: even in the presence of 500 μM 2
Method: Next, we tested the intracellular accumulation of Tz via EISA in an attempt to differentiate cancer cells from normal cells. First, we investigated the accumulation of Tz in HeLa cells and HUVECs over time via fluorescence liberation from TCO-CMR (Fig. 3a). Each group of cells was pre-incubated with different concentrations of 2 ranging from 100 to 500 μM for 1, 2, 4, 6, 15 or 24 h. The cells were then washed with PBS thoroughly before the addition of an excessive amount of TCO-CMR (100 μL, 50 μM), and the reaction of TCO-CMR with the intracellular accumulated Tz was allowed to proceed for up to 24 h (Supplementary Fig. 8). In this experimental setting, the total liberated fluorescence was proportional to the amount of 3 accumulated inside the cells. […] Therefore, the optimized concentration of 2 (e.g. 500 μM) and incubation time (e.g. 6 h) were selected to differentiate between cancer and normal cells according to liberated fluorescence intensity (Fig. 3c). […]
All cells were purchased from the National Infrastructure of Cell Line Resource (Beijing, China). […] After incubation for different durations (1–24 h), the cells were rinsed with PBS, and then 100 μL of 50 μM TCO-CMR (dissolved in PBS) was added for real-time detection of the fluorescence intensity of coumarin in a plate reader (Perkin Elmer).

HeLa tumours = experiment: Tumour inhibition test, subcutaneous HeLa xenograft; format: in vivo, BALB/c nude mice
Method: All animal studies were performed in accordance with the Institutional Animal Use and Care Regulations approved by the National Institutes of Health Clinical Center/Animal Care and Use Committee (NIH CC/ACUC). Athymic female nude mice (5–6 weeks old) were purchased from Beijing Huafukang Bioscience Co., Ltd., and raised in a specific-pathogen-free barrier facility. Tumour-bearing mice were established by subcutaneously injecting a suspension of 10^6 HeLa cells per mouse into the front flank of each nude mouse.
After 14 days, the mice were sacrificed.

HeLa cells = experiment: Intracellular Tz accumulation by fluorescence liberation from TCO-CMR, HeLa cells; format: cell-based
Method: Next, we tested the intracellular accumulation of Tz via EISA in an attempt to differentiate cancer cells from normal cells. First, we investigated the accumulation of Tz in HeLa cells and HUVECs over time via fluorescence liberation from TCO-CMR (Fig. 3a). […] The cells were then washed with PBS thoroughly before the addition of an excessive amount of TCO-CMR (100 μL, 50 μM), and the reaction of TCO-CMR with the intracellular accumulated Tz was allowed to proceed for up to 24 h (Supplementary Fig. 8). In this experimental setting, the total liberated fluorescence was proportional to the amount of 3 accumulated inside the cells. […] Therefore, the optimized concentration of 2 (e.g. 500 μM) and incubation time (e.g. 6 h) were selected to differentiate between cancer and normal cells according to liberated fluorescence intensity (Fig. 3c). This differentiation was dependent on the considerably different phosphatase activity between these cell lines (Supplementary Fig. 11), allowing EISA to specifically occur in cancer cells as opposed to normal cells.
All cells were purchased from the National Infrastructure of Cell Line Resource (Beijing, China). HeLa cells, HUVECs and CCC-HEH-2 cells were cultured in a humidified CO2 (5%) incubator at 37 °C in DMEM supplemented with 10% foetal bovine serum (FBS, Gibco) and 1% Pen Strep (PS, Gibco). Saos-2 cells were cultured in a humidified CO2 (5%) incubator at 37 °C in McCoy’s 5A medium supplemented with 10% FBS and 1% PS. Cells were plated in flat-bottom 96-well plates (Corning) at a density of 10^4 cells per well and allowed to attach for 12 h. Then, the culture medium was replaced with 100 μL of pre-warmed medium containing 2 at different concentrations (100–500 μM). After incubation for different durations (1–24 h), the cells were rinsed with PBS, and then 100 μL of 50 μM TCO-CMR (dissolved in PBS) was added for real-time detection of the fluorescence intensity of coumarin in a plate reader (Perkin Elmer).

[1] = Stability in human serum (UPLC-MS/MS); format: in vitro ADME; conditions: 10 μM in human serum
Method: (Sigma, St. Louis, MO). Then, 9 µL Na125I (2.4 mCi) (Beijing Atom High Tech, Beijing, China) was added and the mixture was kept at room temperature for 1 h until the labeling ratio reached to more than 95%. For SPECT/CT imaging, a mixture of 50 mg kg-1 2 and 0.875 mg kg-1 125I labelled 2 (700 µCi) were intravenously administrated to investigate the distribution of 2/3 and 0.875 mg kg-1 125I labelled 2 (700 µCi) was administrated as a control. After anesthetization with 2% isoflurane in oxygen, SPECT and helical CT scans of the mice were performed at 2, 5, 7 and 25 h on a NanoScan SPECT/CT imaging system (Mediso, Budapest, Hungary).
UPLC-MS/MS analyses: UPLC-MS/MS metabolomic analyses were performed using a Triple Quadrupole Liquid Chromatograph Mass Spectrometer (LCMS 8050, Shimadzu) in multiple reaction-monitoring mode (MRM). Data acquisition and processing were performed using LabSolutions version 5 software. Measurements were carried out at 40°C. […]
Plasmatic stability of compound 2 and TCO-Dox: To evaluate the stability of 2 and TCO-Dox under physiologically relevant conditions, compounds were incubated in human serum and the amount of the remaining intact compound (the corresponding dephosphorylated 3 was detected as well) was determined by UPLC-MS/MS. […] After centrifugation at 1559 g for 7 min and filtration, 2 µL of the supernatant was analyzed by UPLC-MS/MS (n=5).

Cc1nnc(-c2ccc(CC(=O)NCCCCC(NC(=O)Cc3ccc4ccccc4c3)C(=O)NC(Cc3ccc(OP(=O)(O)O)cc3)C(=O)NC(Cc3ccccc3)C(=O)O)cc2)nn1 (stereo not drawn) [compound 2, NapK(Tz)YpF]
liberated fluorescence in HUVECs (HUVECs): only a negligible amount of fluorescence | histological examination of dissected tumours (HE staining) (HeLa tumours; after treatment for 14 days): the HeLa cells remained normal | tumour growth (HeLa tumours; i.v., three courses (day 0, 3, 6), 50 mg kg^−1 2, 30 mg kg^−1 TCO-Dox, 5 mg kg^−1 Dox, or 50 mg kg^−1 2 then 30 mg kg^−1 TCO-Dox after 2 h): rapid growth similar to that observed in the saline control group | incubation time at which liberated fluorescence reaches maximum value (HeLa cells; 500 μM 2, then 50 μM TCO-CMR): approximately 6 h | fluorescence emission of liberated coumarin in HeLa cells (HeLa cells; pre-incubated with 400 or 500 μM 2): increased significantly | stability in serum/plasma [1]: partially transformed to the dephosphorylated product 3 in plasma

Reference: article PMC6261997, “Synergistic enzymatic and bioorthogonal reactions for selective prodrug activation in living systems” (Nature Communications, 2018)
